Some test systems named below: ACHN renal; BT-549 breast; COLO 205 colon; HS 578T breast; MCF7 breast; OVCAR-5 ovarian; PC-3 prostate; SF-295 CNS; SR leukemia; NCI/ADR-RES ovarian.
Common to all, as to experiment: DTP human tumour cell line panel, 48 h

Where “and” joins values, the source holds several entries; their conditions need not be identical. Equal values may be shown once.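 In this assay, cells in 96-well plates receive the compound at five concentrations for 48 hours. Endpoints are linearly interpolated between the surrounding concentrations. The concentration for 50% growth inhibition is given as GI50. TGI is the concentration that stops growth completely.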

In the case of `CCC/C(=N\NC(=S)N1CC2CCC(CC2)C1)c1ccccn1`, the GI50 was 0.0808 µM in the experiment on ACHN renal, 0.0138 µM in the experiment with COLO 205 colon, 1.25 µM in the experiment on OVCAR-5 ovarian and 0.114 µM with SF-295 CNS. Moreover, the TGI with ACHN renal is 2.72 µM and 2.09 µM; in the experiment on BT-549 breast, 1.96 µM; in the experiment with COLO 205 colon, 0.0997 µM and 0.281 µM; in the experiment on HS 578T breast it was 4.43 µM; with MCF7 breast it was 1.44 µM; with OVCAR-5 ovarian, 5.64 µM and 3 µM. Besides, the results for the TGI in the experiment on PC-3 prostate, with SF-295 CNS and in the experiment on SR leukemia were 1.39 µM, 1.2 µM and 2.77 µM, respectively.

Take `COc1ccc2c(=O)cc(C(Cl)(Cl)Cl)oc2c1`: the GI50 was 0.412 µM with ACHN renal; 0.336 µM with BT-549 breast; 0.979 µM in the experiment with HS 578T breast; 0.262 µM with MCF7 breast; 0.296 µM in the experiment on NCI/ADR-RES ovarian; 0.385 µM with OVCAR-5 ovarian. Further, the concentration for 50% growth inhibition (GI50) was 0.39 µM with PC-3 prostate, 1.27 µM with SF-295 CNS and 0.058 µM in the experiment with SR leukemia. The TGI in the experiment on ACHN renal was 13.8 µM; in the experiment on BT-549 breast, 10.6 µM; with HS 578T breast, 48.6 µM; in the experiment on MCF7 breast it was 14.6 µM; with NCI/ADR-RES ovarian it was 14.2 µM; in the experiment on OVCAR-5 ovarian, 15.8 µM. Besides, the results for the total growth inhibition concentration (TGI) in the experiment on PC-3 prostate, in the experiment with SF-295 CNS and in the experiment with SR leukemia were 18.9 µM, 13 µM and 91.5 µM, respectively.

Turning to `COc1cc(C(=O)N2CCN(c3ncnc4ccccc34)CC2)c(N)cc1OCc1ccccc1`, the GI50 in the experiment with ACHN renal was 14 µM; in the experiment on BT-549 breast it was 11.3 µM; with COLO 205 colon, 5.14 µM; in the experiment on HS 578T breast, 17.1 µM; in the experiment on MCF7 breast, 8.29 µM; in the experiment on NCI/ADR-RES ovarian, 16.1 µM. Moreover, the GI50 in the experiment on OVCAR-5 ovarian was 15.3 µM; in the experiment on PC-3 prostate it was 15.4 µM; in the experiment on SF-295 CNS it was 12.8 µM; in the experiment on SR leukemia, 4.11 µM. Moreover, the TGI with ACHN renal is 37.6 µM; in the experiment with BT-549 breast it was 25 µM; in the experiment on COLO 205 colon, 20.2 µM; in the experiment on HS 578T breast, 55.7 µM; in the experiment with MCF7 breast, 22.7 µM; in the experiment on NCI/ADR-RES ovarian, 35.1 µM. Also, the TGI in the experiment on OVCAR-5 ovarian came out at 31.5 µM; in the experiment on PC-3 prostate, 43.2 µM; in the experiment with SF-295 CNS, 27.8 µM; with SR leukemia, 15.9 µM.

As for `O=c1[nH]c(=S)[nH]c2c1CN(CCCN1CCOCC1)CN2`, the TGI was 92 µM in the experiment with ACHN renal; more than 100 µM in the experiment with BT-549 breast; 38.6 µM with COLO 205 colon; more than 100 µM in the experiment on HS 578T breast; more than 100 µM in the experiment on MCF7 breast; more than 100 µM with NCI/ADR-RES ovarian. Also, the TGI in the experiment on OVCAR-5 ovarian was more than 100 µM; in the experiment on PC-3 prostate, 57.1 µM; in the experiment on SF-295 CNS, more than 100 µM; in the experiment with SR leukemia it was more than 100 µM.

Turning to `Oc1ccc(-c2nc3ccccc3s2)cc1CN(Cc1ccccn1)Cc1ccccn1`, the GI50 with ACHN renal was 0.0991 µM; in the experiment with BT-549 breast, 1.83 µM; in the experiment on COLO 205 colon it was 3.4 µM; in the experiment with HS 578T breast, 4.66 µM; in the experiment on MCF7 breast, 1.19 µM; in the experiment on NCI/ADR-RES ovarian it was 0.359 µM. Moreover, the GI50 in the experiment on OVCAR-5 ovarian is 2.92 µM; in the experiment with PC-3 prostate it was 1.09 µM; in the experiment with SF-295 CNS it was 0.468 µM; in the experiment on SR leukemia, 2.14 µM. Further, the TGI worked out at 3.91 µM in the experiment with ACHN renal; 15.6 µM with BT-549 breast; 15.2 µM with COLO 205 colon; 39.4 µM with HS 578T breast; 15.2 µM with MCF7 breast; 4.22 µM in the experiment with NCI/ADR-RES ovarian. Also, the TGI in the experiment on OVCAR-5 ovarian is 29.8 µM; in the experiment with PC-3 prostate, 21.8 µM; in the experiment on SF-295 CNS it was 6.87 µM; in the experiment on SR leukemia, more than 100 µM.

Turning to `O=C1C=CC(=Nc2cc(Br)c(O)c(Br)c2)C=C1`, the GI50 in the experiment with ACHN renal is 18.9 µM; in the experiment on BT-549 breast, 16.4 µM; in the experiment with COLO 205 colon it was 20 µM; in the experiment on HS 578T breast it was 32.1 µM; in the experiment on MCF7 breast, 7.87 µM; in the experiment with NCI/ADR-RES ovarian it was 47.2 µM. The GI50 in the experiment with OVCAR-5 ovarian was 24.4 µM; in the experiment with SF-295 CNS it was 27 µM; with SR leukemia, 2.13 µM. In addition, the TGI in the experiment on ACHN renal was 46.3 µM; in the experiment on BT-549 breast, 74.8 µM; in the experiment on COLO 205 colon it was 52 µM; in the experiment on HS 578T breast, more than 100 µM; in the experiment on MCF7 breast it was more than 100 µM; with NCI/ADR-RES ovarian, more than 100 µM. For the same compound, the figures for the TGI in the experiment with OVCAR-5 ovarian, in the experiment with SF-295 CNS and with SR leukemia were 60.5 µM, 96.2 µM and more than 100 µM, respectively.

On to `CC1CCCC(C(O)CC2CC(=O)NC(=O)C2)C1O` (centres undefined), for which the TGI in the experiment on ACHN renal, in the experiment with BT-549 breast, with COLO 205 colon, in the experiment on HS 578T breast, in the experiment with MCF7 breast and in the experiment on NCI/ADR-RES ovarian was more than 100 µM each time. Moreover, the TGI in the experiment on OVCAR-5 ovarian, with PC-3 prostate, in the experiment on SF-295 CNS and with SR leukemia was more than 100 µM throughout.

In the case of `C#Cc1c(/C=C/C(=O)OCC)ccc2ccccc12`, the GI50 in the experiment with ACHN renal was 14.6 µM; with BT-549 breast it was 18.7 µM; in the experiment on COLO 205 colon, 13.8 µM; in the experiment with HS 578T breast, 27.2 µM; in the experiment on MCF7 breast, 24 µM; in the experiment with NCI/ADR-RES ovarian, 21.3 µM. The GI50 with OVCAR-5 ovarian is 28.9 µM; with PC-3 prostate it was 18.3 µM; in the experiment on SF-295 CNS, 13.3 µM; with SR leukemia it was 3.94 µM. Besides, the TGI is 31.7 µM with ACHN renal; 44.7 µM with BT-549 breast; 33.5 µM with COLO 205 colon; 83.2 µM in the experiment with HS 578T breast; more than 100 µM in the experiment with MCF7 breast; 59.2 µM in the experiment with NCI/ADR-RES ovarian. Moreover, the total growth inhibition concentration (TGI) in the experiment with OVCAR-5 ovarian was more than 100 µM; in the experiment with PC-3 prostate it was 63.6 µM; in the experiment with SF-295 CNS, 45 µM; in the experiment with SR leukemia, 17 µM.

As a reminder, the GI50 is the concentration giving 50% growth inhibition. A word on the TGI: it is the concentration at which net growth stops. Lower therefore signals more potent growth arrest.

Source of the values: PubChem BioAssay (NCI).
